Experiments:
Format in all cases: functional
A498 = experiment: Growth inhibition of human A498 cells assessed as cell growth at 10 uM incubated for 48 hrs by sulforhodamine B assay relative to control; conditions: A498, 48 h, read-out: Activity
T47D = experiment: Growth inhibition of human T47D cells assessed as cell growth at 10 uM incubated for 48 hrs by sulforhodamine B assay relative to control; conditions: read-out: Activity
HCC 2998 = experiment: Growth inhibition of human HCC2998 cells assessed as cell growth at 10 uM incubated for 48 hrs by sulforhodamine B assay relative to control; conditions: HCC 2998, 48 h, read-out: Activity
RXF 393 = experiment: Growth inhibition of human RXF393 cells assessed as cell growth at 10 uM incubated for 48 hrs by sulforhodamine B assay relative to control; conditions: RXF 393, 48 h, read-out: Activity
SW-620 = experiment: Growth inhibition of human SW620 cells assessed as cell growth at 10 uM incubated for 48 hrs by sulforhodamine B assay relative to control; conditions: SW-620, 48 h, read-out: Activity
CCRF-CEM = experiment: Growth inhibition of human CCRF-CEM cells assessed as cell growth at 10 uM incubated for 48 hrs by sulforhodamine B assay relative to control; conditions: read-out: Activity
SN12C = experiment: Growth inhibition of human SN12C cells assessed as cell growth at 10 uM incubated for 48 hrs by sulforhodamine B assay relative to control; conditions: read-out: Activity
SF-268 = experiment: Growth inhibition of human SF268 cells assessed as cell growth at 10 uM incubated for 48 hrs by sulforhodamine B assay relative to control; conditions: SF-268, 48 h, read-out: Activity
BT-549 = experiment: Growth inhibition of human BT549 cells assessed as cell growth at 10 uM incubated for 48 hrs by sulforhodamine B assay relative to control; conditions: BT-549, 48 h, read-out: Activity
A549 = experiment: Growth inhibition of human A549/ATCC cells assessed as cell growth at 10 uM incubated for 48 hrs by sulforhodamine B assay relative to control; conditions: A549, 48 h, read-out: Activity
RPMI-8226 = experiment: Growth inhibition of human RPMI8226 cells assessed as cell growth at 10 uM incubated for 48 hrs by sulforhodamine B assay relative to control; conditions: RPMI-8226, 48 h, read-out: Activity
LOX IMVI = experiment: Growth inhibition of human LOXIMVI cells assessed as cell growth at 10 uM incubated for 48 hrs by sulforhodamine B assay relative to control; conditions: read-out: Activity
MDA-MB-231 = experiment: Growth inhibition of human MDA-MB-231 cells assessed as cell growth at 10 uM incubated for 48 hrs by sulforhodamine B assay relative to control; conditions: MDA-MB-231, 48 h, read-out: Activity
NCI-H322M = experiment: Growth inhibition of human NCI-H322M cells assessed as cell growth at 10 uM incubated for 48 hrs by sulforhodamine B assay relative to control; conditions: read-out: Activity
786-0 = experiment: Growth inhibition of human 786-0 cells assessed as cell growth at 10 uM incubated for 48 hrs by sulforhodamine B assay relative to control; conditions: 786-0, 48 h, read-out: Activity
SNB-19 = experiment: Growth inhibition of human SNB19 cells assessed as cell growth at 10 uM incubated for 48 hrs by sulforhodamine B assay relative to control; conditions: SNB-19, 48 h, read-out: Activity
NCI-H23 = experiment: Growth inhibition of human NCI-H23 cells assessed as cell growth at 10 uM incubated for 48 hrs by sulforhodamine B assay relative to control; conditions: NCI-H23, 48 h, read-out: Activity
UACC-62 = experiment: Growth inhibition of human UACC62 cells assessed as cell growth at 10 uM incubated for 48 hrs by sulforhodamine B assay relative to control; conditions: UACC-62, 48 h, read-out: Activity
NCI-H460 = experiment: Growth inhibition of human NCI-H460 cells assessed as cell growth at 10 uM incubated for 48 hrs by sulforhodamine B assay relative to control; conditions: NCI-H460, 48 h, read-out: Activity
PC-3 = experiment: Growth inhibition of human PC3 cells assessed as cell growth at 10 uM incubated for 48 hrs by sulforhodamine B assay relative to control; conditions: PC-3, 48 h, read-out: Activity
HT-29 = experiment: Growth inhibition of human HT-29 cells assessed as cell growth at 10 uM incubated for 48 hrs by sulforhodamine B assay relative to control; conditions: HT-29, 48 h, read-out: Activity
SK-MEL-2 = experiment: Growth inhibition of human SK-MEL-2 cells assessed as cell growth at 10 uM incubated for 48 hrs by sulforhodamine B assay relative to control; conditions: SK-MEL-2, 48 h, read-out: Activity
Malme-3M = experiment: Growth inhibition of human MALME-3M cells assessed as cell growth at 10 uM incubated for 48 hrs by sulforhodamine B assay relative to control; conditions: read-out: Activity
KM12 = experiment: Growth inhibition of human KM12 cells assessed as cell growth at 10 uM incubated for 48 hrs by sulforhodamine B assay relative to control; conditions: KM12, 48 h, read-out: Activity
HCT-116 = experiment: Growth inhibition of human HCT116 cells assessed as cell growth at 10 uM incubated for 48 hrs by sulforhodamine B assay relative to control; conditions: HCT-116, 48 h, read-out: Activity
NCI-H522 = experiment: Growth inhibition of human NCI-H522 cells assessed as cell growth at 10 uM incubated for 48 hrs by sulforhodamine B assay relative to control; conditions: NCI-H522, 48 h, read-out: Activity
U-251 = experiment: Growth inhibition of human U251 cells assessed as cell growth at 10 uM incubated for 48 hrs by sulforhodamine B assay relative to control; conditions: U-251, 48 h, read-out: Activity
M14 = experiment: Growth inhibition of human M14 cells assessed as cell growth at 10 uM incubated for 48 hrs by sulforhodamine B assay relative to control; conditions: M14, 48 h, read-out: Activity
UO-31 = experiment: Growth inhibition of human UO31 cells assessed as cell growth at 10 uM incubated for 48 hrs by sulforhodamine B assay relative to control; conditions: UO-31, 48 h, read-out: Activity
OVCAR-8 = experiment: Growth inhibition of human OVCAR8 cells assessed as cell growth at 10 uM incubated for 48 hrs by sulforhodamine B assay relative to control; conditions: OVCAR-8, 48 h, read-out: Activity
NCI/ADR-RES = experiment: Growth inhibition of human NCI/ADR-RES cells assessed as cell growth at 10 uM incubated for 48 hrs by sulforhodamine B assay relative to control; conditions: read-out: Activity
OVCAR-3 = experiment: Growth inhibition of human OVCAR3 cells assessed as cell growth at 10 uM incubated for 48 hrs by sulforhodamine B assay relative to control; conditions: OVCAR-3, 48 h, read-out: Activity
MDA-MB-468 = experiment: Growth inhibition of human MDA-MB-468 cells assessed as cell growth at 10 uM incubated for 48 hrs by sulforhodamine B assay relative to control; conditions: MDA-MB-468, 48 h, read-out: Activity

SMILES	growth at 10 µM (A498) [%]	growth at 10 µM (T47D) [%]	growth at 10 µM (HCC 2998) [%]	growth at 10 µM (RXF 393) [%]	growth at 10 µM (SW-620) [%]	growth at 10 µM (CCRF-CEM) [%]	growth at 10 µM (SN12C) [%]	growth at 10 µM (SF-268) [%]	growth at 10 µM (BT-549) [%]	growth at 10 µM (A549) [%]	growth at 10 µM (RPMI-8226) [%]	growth at 10 µM (LOX IMVI) [%]	growth at 10 µM (MDA-MB-231) [%]	growth at 10 µM (NCI-H322M) [%]	growth at 10 µM (786-0) [%]	growth at 10 µM (SNB-19) [%]	growth at 10 µM (NCI-H23) [%]	growth at 10 µM (UACC-62) [%]	growth at 10 µM (NCI-H460) [%]	growth at 10 µM (PC-3) [%]	also measured
Cc1ccc2[nH]c(=O)c(C3CNC(=O)c4ccccc4N3)cc2c1 (configuration not stated)	93	116	107	109	106	97.4	99.7	99.5	99.4	95.7	102	96.8	114	110	103	99.3	97.1	98.4	106	98.5	growth at 10 µM (HT-29): 104%; growth at 10 µM (SK-MEL-2): 110%; growth at 10 µM (Malme-3M): 109%; growth at 10 µM (KM12): 102%; growth at 10 µM (HCT-116): 106%; growth at 10 µM (NCI-H522): 93.6%; growth at 10 µM (U-251): 99.5%; growth at 10 µM (M14): 103%; growth at 10 µM (UO-31): 84.3%; growth at 10 µM (OVCAR-8): 113%; growth at 10 µM (NCI/ADR-RES): 108%; growth at 10 µM (OVCAR-3): 107%; growth at 10 µM (MDA-MB-468): 110%
O=C1CC(c2cc3ccccc3[nH]c2=O)Nc2ccccc21 (configuration not stated)	79.4	94.3	103	99.7	104	106	93.3	101	94.3	95.5	107	98.2	83.9	102	93.9	99.4	97.8	96.3	105	104	growth at 10 µM (HT-29): 99.5%; growth at 10 µM (SK-MEL-2): 98.3%; growth at 10 µM (Malme-3M): 106%; growth at 10 µM (KM12): 105%; growth at 10 µM (HCT-116): 91.6%; growth at 10 µM (NCI-H522): 90.7%; growth at 10 µM (U-251): 99.7%; growth at 10 µM (M14): 101%; growth at 10 µM (UO-31): 95.2%; growth at 10 µM (OVCAR-8): 108%; growth at 10 µM (NCI/ADR-RES): 108%; growth at 10 µM (OVCAR-3): 113%; growth at 10 µM (MDA-MB-468): 96.5%
O=C1CC(c2cc3ccc4ccccc4c3[nH]c2=O)Nc2ccccc21 (configuration not stated)	115	93.1	108	110	96	101	90.7	96.8	69.4	92.4	99.7	84	69.3	108	95.6	92.5	93.6	101	81.1	102	growth at 10 µM (HT-29): 99.1%; growth at 10 µM (SK-MEL-2): 96.2%; growth at 10 µM (Malme-3M): 84.7%; growth at 10 µM (KM12): 94.5%; growth at 10 µM (HCT-116): 93%; growth at 10 µM (NCI-H522): 89.2%; growth at 10 µM (U-251): 87.6%; growth at 10 µM (M14): 96.4%; growth at 10 µM (UO-31): 95.4%; growth at 10 µM (OVCAR-8): 110%; growth at 10 µM (NCI/ADR-RES): 108%; growth at 10 µM (OVCAR-3): 115%; growth at 10 µM (MDA-MB-468): 91.2%
O=C1NCC(c2cc3ccc(Cl)cc3[nH]c2=O)Nc2ccccc21 (configuration not stated)	112	66.5	105	97.2	107	134	111	106	99.9	73.9	119	96.3	118	98	99.7	108	94	106	104	87.1	growth at 10 µM (HT-29): 72.2%; growth at 10 µM (SK-MEL-2): 103%; growth at 10 µM (Malme-3M): 93.4%; growth at 10 µM (KM12): 103%; growth at 10 µM (HCT-116): 87.8%; growth at 10 µM (NCI-H522): 63.8%; growth at 10 µM (U-251): 88.9%; growth at 10 µM (M14): 96.8%; growth at 10 µM (UO-31): 88.7%; growth at 10 µM (OVCAR-8): 97.8%; growth at 10 µM (NCI/ADR-RES): 99.4%; growth at 10 µM (OVCAR-3): 109%; growth at 10 µM (MDA-MB-468): 96.5%
